# Reference: US12011444B2, “N-substituted indole derivatives as PGE2 receptor modulators” (Idorsia Pharmaceuticals Ltd, priority 2015, dated 2024)
# Assays:
# [1] = target: PTRGER4 (EP4) (Homo sapiens (Human), UniProt P35408); assay: hEP4 b-arrestin assay (PathHunter HEK 293 PTGER4 b-arrestin cells); type: cell-based; settings: antagonistic activity on hEP4; mean where measured multiple times
# Summary of the method: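 Antagonist mode: compound is given 15 min at 37 °C, then 20 nM (final) PGE2 for 120 min, in HEK293 cells stably expressing EP4 fused to ProLink and β-arrestin 2 fused to EA. Recruitment read as β-gal luminescence after 1 h reagent at room temperature, as percent of DMSO control.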
# [2] = target: PTGER2 (EP2) (Homo sapiens (Human), UniProt P43116); assay: hEP2 b-arrestin assay (PathHunter HEK 293 PTGER2 b-arrestin cells); type: cell-based; settings: antagonistic activity on hEP2; mean where measured multiple times
# Sequence of PTGER2 (EP2) (P43116 whole entry): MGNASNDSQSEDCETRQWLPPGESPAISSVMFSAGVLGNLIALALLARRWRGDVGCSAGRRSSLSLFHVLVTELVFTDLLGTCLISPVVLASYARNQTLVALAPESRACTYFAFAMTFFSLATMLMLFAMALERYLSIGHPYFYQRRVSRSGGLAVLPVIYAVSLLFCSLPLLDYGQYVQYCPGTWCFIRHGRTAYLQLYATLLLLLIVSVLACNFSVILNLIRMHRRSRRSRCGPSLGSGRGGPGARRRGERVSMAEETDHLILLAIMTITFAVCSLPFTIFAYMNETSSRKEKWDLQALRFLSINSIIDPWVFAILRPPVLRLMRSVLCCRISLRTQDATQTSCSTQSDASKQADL
# Summary of the method: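 Readout is β-galactosidase complementation luminescence, expressed as percent of DMSO control (duplicates). PathHunter HEK293 EP2/β-arrestin 2 cells, grown 24 h, received compound for 15 min at 37 °C before a 120 min challenge with PGE2 at 5 μM final, followed by 1 h detection at room temperature.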
# Sequence of PTRGER4 (EP4) (P35408 whole entry, looked up, the tested form may be a part): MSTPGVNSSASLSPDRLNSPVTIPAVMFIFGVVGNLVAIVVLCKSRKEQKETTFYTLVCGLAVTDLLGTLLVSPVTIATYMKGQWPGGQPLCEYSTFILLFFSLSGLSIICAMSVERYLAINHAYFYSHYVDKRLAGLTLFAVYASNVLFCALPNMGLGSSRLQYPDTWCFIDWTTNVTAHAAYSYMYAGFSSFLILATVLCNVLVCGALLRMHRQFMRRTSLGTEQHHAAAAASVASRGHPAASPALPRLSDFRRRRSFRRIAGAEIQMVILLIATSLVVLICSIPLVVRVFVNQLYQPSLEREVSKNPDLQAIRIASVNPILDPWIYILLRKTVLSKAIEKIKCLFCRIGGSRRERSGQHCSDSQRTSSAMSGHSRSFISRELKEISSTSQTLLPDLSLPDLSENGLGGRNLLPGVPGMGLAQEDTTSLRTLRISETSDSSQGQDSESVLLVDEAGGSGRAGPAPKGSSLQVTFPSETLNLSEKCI
Structure (SMILES),IC50 [1] [nM],IC50 [2] [nM]
CCOc1cc(-c2cc(NCCn3c(C)cc4c(Cl)ccc(F)c43)ncn2)ccc1C(=O)O [compound 281],435,27
CCOc1cc(-c2cc(NCCn3c(C)cc4c(C)cc(F)cc43)ncn2)ccc1C(=O)O [compound 282],294,11
CCc1cc(-c2cc(NCCn3c(C)cc4c(OC)cc(F)cc43)ncn2)ccc1C(=O)O [compound 283],132,17
CCOc1cc(-c2cc(NCCn3c(C)cc4cc(C)cc(Cl)c43)ncn2)ccc1C(=O)O [compound 284],824,34
CCOc1cc(-c2cc(NCCn3c(C)cc4cc(C)cc(F)c43)ncn2)ccc1C(=O)O [compound 285],691,47
COc1cc(-c2cc(NCCn3c(C)cc4c(C)ccc(F)c43)ncn2)cc(C)c1C(=O)O [compound 286],268,31
COc1ccc(Cl)c2c1cc(C)n2CCNc1cc(-c2cc(C)c(C(=O)O)c(C)c2)ncn1 [compound 287],963,183
CCc1cc(-c2cc(NCCn3c(C)cc4c(OC)ccc(Cl)c43)ncn2)ccc1C(=O)O [compound 288],714,19
COc1ccc(F)c2c1cc(C)n2CCNc1cc(-c2cc(C)c(C(=O)O)c(C)c2)ncn1 [compound 289],299,53
CCc1cc(-c2cc(NCCn3c(C)cc4c(OC)ccc(F)c43)ncn2)ccc1C(=O)O [compound 290],102,28
COc1cc(F)cc2c1cc(C)n2CCNc1cc(-c2cc(Cl)c(C(=O)O)c(Cl)c2)ncn1 [compound 291],104,41
COc1ccc(Cl)c2c1cc(C)n2CCNc1cc(-c2cc(Cl)c(C(=O)O)c(Cl)c2)ncn1 [compound 292],397,52
COc1ccc(F)c2c1cc(C)n2CCNc1cc(-c2cc(Cl)c(C(=O)O)c(Cl)c2)ncn1 [compound 293],113,19
CCOc1cc(-c2cc(NCCn3c(C)cc4c(C)cc(F)c(F)c43)ncn2)sc1C(=O)O [compound 294],10,8
"CCc1cc(-c2cc(NCCn3c(C)cc4c5c(cc(Cl)c43)OCO5)ncn2)ccc1C(=O)O [compound 295, 4-{6-[2-(5-Chloro-7-methyl-[1,3]dioxolo[4,5-e]indol-6-yl)-ethylamino]-pyrimidin-4-yl}-2-ethyl-benzoic acid]",950,12
"COc1ccc(F)c2c1cc(C)n2CCNc1cc(-c2ccc(C(=O)O)c(C3CC3)c2)ncn1 [compound 296, 2-Cyclopropyl-4-{6-[2-(7-fluoro-4-methoxy-2-methyl-indol-1-yl)-ethylamino]-pyrimidin-4-yl}-benzoic acid]",259,7
Cc1cc(F)cc2c1cc(C)n2CCNc1cc(-c2ccc3[nH]c(C(F)(F)F)nc3c2)ncn1 [compound 297],814,539
"Cc1sc(N)nc1-c1ccc(-c2cc(NCCn3c(C)cc4c(C)ccc(F)c43)ncn2)cc1 [compound 298, {6-[4-(2-Amino-5-methyl-thiazol-4-yl)-phenyl]-pyrimidin-4-yl}-[2-(7-fluoro-2,4-dimethyl-indol-1-yl)-ethyl]-amine]",249,19
"COc1cc(F)c(F)c2c1cc(C)n2CCNc1cc(-c2ccc(-c3ncno3)cc2)ncn1 [compound 299, [2-(6,7-Difluoro-4-methoxy-2-methyl-indol-1-yl)-ethyl]-[6-(4-[1,2,4]oxadiazol-5-yl-phenyl)-pyrimidin-4-yl]-amine]",81,10
"COc1cccc2c1cc(C)n2CCNc1cc(-c2ccc(-c3nnc(C)o3)c(F)c2)ncn1 [compound 300, {6-[3-Fluoro-4-(5-methyl-[1,3,4]oxadiazol-2-yl)-phenyl]-pyrimidin-4-yl}-[2-(4-methoxy-2-methyl-indol-1-yl)-ethyl]-amine]",494,40
COc1cc(F)cc2c1cc(C)n2CCNc1cc(-c2ccc(-c3nc(C)no3)cc2)ncn1 [compound 301],358,103

Structure (SMILES),IC50 [1] [nM],IC50 [2] [nM]
"COc1ccc(F)c2c1cc(C)n2CCNc1cc(-c2ccc(-c3nc(C)no3)cc2)ncn1 [compound 302, [2-(7-Fluoro-4-methoxy-2-methyl-indol-1-yl)-ethyl]-{6-[4-(3-methyl-[1,2,4]oxadiazol-5-yl)-phenyl]-pyrimidin-4-yl}-amine]",145,33
"COc1ccc(F)c2c1cc(C)n2CCNc1cc(-c2ccc(-c3noc(C)n3)cc2)ncn1 [compound 303, [2-(7-Fluoro-4-methoxy-2-methyl-indol-1-yl)-ethyl]-{6-[4-(5-methyl-[1,2,4]oxadiazol-3-yl)-phenyl]-pyrimidin-4-yl}-amine]",322,33
"COc1ccc(F)c2c1cc(C)n2CCNc1cc(-c2ccc(-c3cc(N)no3)cc2)ncn1 [compound 304, {6-[4-(3-Amino-isoxazol-5-yl)-phenyl]-pyrimidin-4-yl}-[2-(7-fluoro-4-methoxy-2-methyl-indol-1-yl)-ethyl]-amine]",12,2
Cc1nnc(-c2ccc(-c3cc(NCCn4c(C)cc5c(C)ccc(F)c54)ncn3)cc2F)o1 [compound 306],207,408
"COc1cc(F)c(F)c2c1cc(C)n2CCNc1cc(-c2ccc(-c3c[nH]cn3)cc2)ncn1 [compound 307, [2-(6,7-Difluoro-4-methoxy-2-methyl-indol-1-yl)-ethyl]-{6-[4-(1H-imidazol-4-yl)-phenyl]-pyrimidin-4-yl}-amine]",47,25
COc1cccc2c1cc(C)n2CCNc1cc(-c2ccc(Cn3cccn3)c(F)c2)ncn1 [compound 308],429,383
"COc1cc(F)cc2c1cc(C)n2CCNc1cc(-c2ccc(-c3ccn(C)n3)cc2)ncn1 [compound 309, [2-(6-Fluoro-4-methoxy-2-methyl-indol-1-yl)-ethyl]-{6-[4-(1-methyl-1H-pyrazol-3-yl)-phenyl]-pyrimidin-4-yl}-amine]",86,11
"COc1ccc(F)c2c1cc(C)n2CCNc1cc(-c2ccc(-n3ccc(C)n3)cc2)ncn1 [compound 310, [2-(7-Fluoro-4-methoxy-2-methyl-indol-1-yl)-ethyl]-{6-[4-(3-methyl-pyrazol-1-yl)-phenyl]-pyrimidin-4-yl}-amine]",415,39
"COc1cccc2c1cc(C)n2CCNc1cc(-c2ccc(-c3nc(N)sc3C)cc2)ncn1 [compound 311, {6-[4-(2-Amino-5-methyl-thiazol-4-yl)-phenyl]-pyrimidin-4-yl}-[2-(4-methoxy-2-methyl-indol-1-yl)-ethyl]-amine]",232,4
"COc1cc(F)cc2c1cc(C)n2CCNc1cc(-c2ccc(-c3noc(=O)[nH]3)cc2)ncn1 [compound 312, 3-(4-{6-[2-(6-Fluoro-4-methoxy-2-methyl-indol-1-yl)-ethylamino]-pyrimidin-4-yl}-phenyl)-4H-[1,2,4]oxadiazol-5-one]",85,44
"COc1ccc(F)c2c1cc(C)n2CCNc1cc(-c2ccc(-c3noc(=O)[nH]3)cc2)ncn1 [compound 313, 3-(4-{6-[2-(7-Fluoro-4-methoxy-2-methyl-indol-1-yl)-ethylamino]-pyrimidin-4-yl}-phenyl)-4H-[1,2,4]oxadiazol-5-one]",110,7
"CCCN1Cc2cc(-c3cc(NCCn4c(C)cc5c(OC)cccc54)ncn3)ccc2C1=O [compound 315, 5-{6-[2-(4-Methoxy-2-methyl-indol-1-yl)-ethylamino]-pyrimidin-4-yl}-2-propyl-2,3-dihydro-isoindol-1-one]",268,46
Cc1ccc(F)c2c1cc(C)n2CCNc1cc(-c2ccc(N3CCCS3(=O)=O)cc2)ncn1 [compound 316],906,245
COc1cc(F)cc2c1cc(C)n2CCNc1cc(-c2ccc(N3CCCC3=O)cc2)ncn1 [compound 317],873,320
COc1ccc(F)c2c1cc(C)n2CCNc1cc(-c2ccc(N3CCCC3=O)cc2)ncn1 [compound 318],894,338
CCN1Cc2cc(-c3cc(NCCn4c(C)cc5c(OC)ccc(F)c54)ncn3)ccc2C1=O [compound 320],345,68
COc1ccc(F)c2c1cc(C)n2CCNc1cc(-c2ccc(-c3csc(C)n3)cc2)ncn1 [compound 321],439,72
"COc1ccc(F)c2c1cc(C)n2CCNc1cc(-c2ccc(C(=O)O)c3[nH]ccc23)ncn1 [compound 323, 4-{6-[2-(7-Fluoro-4-methoxy-2-methyl-indol-1-yl)-ethylamino]-pyrimidin-4-yl}-1H-indole-7-carboxylic acid]",708,18
"CNc1nnc(-c2ccc(-c3cc(NCCn4c(C)cc5c(C)ccc(F)c54)ncn3)cc2)s1 [compound 324, [2-(7-Fluoro-2,4-dimethyl-indol-1-yl)-ethyl]-{6-[4-(5-methylamino-[1,3,4]thiadiazol-2-yl)-phenyl]-pyrimidin-4-yl}-amine]",23,4
COc1ccc(F)c2c1cc(C)n2CCNc1cc(-c2ccc3c(c2)CCO3)ncn1 [compound 325],968,159
CCc1cccc2c1cc(C)n2CCNc1cc(-c2ccc(C(=O)O)c(CC(C)C)c2)ncn1 [compound 327],629,482
